Results from patent US20240226124A9, “CANNABIDIOL FOR TREATING NEURODEGENERATIVE DISEASES” (AUGUSTA UNIVERSITY RESEARCH INSTITUTE, INC., priority 2021, published 2024).

Assays:
Format in all cases: in vivo, mouse
IL-6 = assay: Flow cytometry of IL-6 in peripheral blood leukocytes; conditions: whole blood of 5xFAD mice, CBD 10 mg/kg intraperitoneally, 8 doses over 2 weeks; decreased from 6.9±1.9%, p≤0.009
Method: 5xFAD (expressing human APP and PSEN1 transgenes with a total of five AD-linked mutations) transgenic mice (male 9-12-month-olds) were used. These 5xFAD transgenic mice rapidly recapitulate major features of AD amyloid pathology. Mice were randomized into two experimental groups (placebo or CBD-treated; 6-10 mice/group) by a blinded investigator. A group of untreated wild-type (WT) experiments were performed in accordance with the rules and regulations of the Augusta University Institutional Animal Care and Use Committee (IACUC). […]
For flow cytometry analysis, single-cell suspension was prepared from brain, and blood by sieving the brain tissues through a […] cell strainer followed by centrifugation (252 g, 10 min). All cells were then stained with fluorescent antibodies based on routine flow cytometry staining protocol as described previously to quantify astrocytes (GFAP+cells), IL-33, myeloid cells (CD11b+), and TREM2 in the brain as well as leukocytes (CD45+) and IL-6 in the blood. IL-6 was measured as a reliable biomarker in the blood. […] Flow cytometry data were analyzed using FlowJo V10. Proper compensation was set to ensure the median fluorescence intensities of negative and positive cells were […] and then was used to gate the population. […]

TREM2 [1] = assay: Immunofluorescence staining of TREM2 in brain tissues; conditions: 5xFAD mice, CBD treated compared to untreated group; distinctively in microglial cells
Method: (§1) 5xFAD (expressing human APP and PSEN1 transgenes with a total of five AD-linked mutations) transgenic mice (male 9-12-month-olds) were used. These 5xFAD transgenic mice rapidly recapitulate major features of AD amyloid pathology. Mice were randomized into two experimental groups (placebo or CBD-treated; 6-10 mice/group) by a blinded investigator. A group of untreated wild-type (WT) experiments were performed in accordance with the rules and regulations of the Augusta University Institutional Animal Care and Use Committee (IACUC). In the treatment group, mice received CBD isolate (tetrahydrocannabinol-free, Canabidiol Ltd., Dublin, Ireland), 10 mg/kg intraperitoneally every other day for 8 doses over 2 weeks. Placebo-treated mice were administered along the same schedule as CBD.
(§2) Brain and blood tissues were collected and processed for histology and Immunofluorescence imaging. Briefly, brain tissues were labeled with specific, fluorescent-conjugated antibodies with fluorescent conjugation against amyloid-β, IL-33, IBA1 (for microglia), TREM2, and GFAP (Glial Fibrillary Acidic Protein for astrocytes identification). Slides were counterstained using DAPI (4′,6-diamidino-2-phenylindole) prior to examination and imaging by Zeiss Fluorescence Microscope.

5xFAD mice [2] = assay: Open Field (OF) test in 5xFAD mice; conditions: CBD 10 mg/kg intraperitoneally every other day, 8 doses over 2 weeks, 10 min test, from 190±90 sec in placebo, p>0.05
Method: as §1, with “Placebo-treated mice were administered along the same schedule as CBD.” left out
(§3) To assess the behavior, Open Field (OF) and Novel Object Recognition (NOR) tests were used. […] The ability of the mouse to discriminate between the familiar and novel object was quantified as a discrimination index, DI=(Tn−Tf)/(Tn+Tf), where Tn is the time spent by the mouse with the novel object, and Tf indicates the time spent with the familiar object. In OF evaluation, mice were tested in a square box (40 cm by 40 cm by 40 cm) for 10 min, and activity was digitally recorded. Distance traveled, mean velocity, and time spent in the center zone were analyzed with Ethovision XT video-tracking software (Noldus Information Technology, USA).

TREM2 [3] = assay: Flow cytometry of TREM2 in brain microglia (CD11b+ cells); conditions: brain of 5xFAD mice, CBD 10 mg/kg intraperitoneally, 8 doses over 2 weeks; p≤0.0001
Method: as §1, with “Placebo-treated mice were administered along the same schedule as CBD.” left out
(§4) For flow cytometry analysis, single-cell suspension was prepared from brain, and blood by sieving the brain tissues through a […] cell strainer followed by centrifugation (252 g, 10 min). All cells were then stained with fluorescent antibodies based on routine flow cytometry staining protocol as described previously to quantify astrocytes (GFAP+cells), IL-33, myeloid cells (CD11b+), and TREM2 in the brain as well as leukocytes (CD45+) and IL-6 in the blood. IL-6 was measured as a reliable biomarker in the blood. […] Proper compensation was set to ensure the median fluorescence intensities of negative and positive cells were […] and then was used to gate the population. […]

IL-33 [4] = assay: Flow cytometry of IL-33 in brain astrocytes (GFAP+ cells); conditions: brain of 5xFAD mice, CBD 10 mg/kg intraperitoneally, 8 doses over 2 weeks; p≤0.001
Method: as §1, with “Placebo-treated mice were administered along the same schedule as CBD.” left out
as §4

5xFAD mice [5] = assay: Novel Object Recognition (NOR) test in 5xFAD mice; conditions: CBD 10 mg/kg intraperitoneally every other day, 8 doses over 2 weeks, from −0.2±0.8 in placebo, p≤0.04
Method: as §1, with “Placebo-treated mice were administered along the same schedule as CBD.” left out
as §3

IL-33 [6] = assay: Immunofluorescence staining of IL-33 in brain tissues; conditions: 5xFAD mice, CBD treated compared to untreated group; more evident in astrocytes
Method: as §1, §2

β-amyloid peptide = assay: Immunofluorescence staining of β-amyloid peptide in brain tissues; conditions: 5xFAD mice, CBD 10 mg/kg intraperitoneally every other day, 8 doses over 2 weeks; hippocampus area
Method: as §1, §2

## C=C(C)[C@@H]1CCC(C)=C[C@H]1c1c(O)cc(CCCCC)cc1O [CBD, cannabidiol]
IL-6
  IL-6 expression in peripheral leukocytes, flow cytometry: 2.1±1.4%
TREM2 [1]
  TREM2 expression in brain tissues (immunofluorescence): increase in TREM2 expression
5xFAD mice [2]
  Central zone stay, OF test: 250 ± 80 s
TREM2 [3]
  increase in TREM2 expression in microglia (CD11b+ cells), flow cytometry: 10 fold
IL-33 [4]
  increase in IL-33 expression in astrocytes (GFAP+ cells), flow cytometry: 7 fold
5xFAD mice [5]
  discrimination index (DI), NOR: 0.5±0.9
IL-33 [6]
  IL-33 expression in brain tissues (immunofluorescence): increase the expression of IL-33
β-amyloid peptide
  β-amyloid peptide in brain tissues (immunofluorescence): reduction of β-amyloid peptide
